Patent publication US20130217702A1 (Richter Gedeon Nyrt., priority 2010, published 2013)

What was measured:
[1] = molecular target: T1, human recombinant bradykinin B1 receptor (Homo sapiens, UniProt P46663); assay: Human recombinant bradykinin B1 receptor competitive radioligand binding; conditions: hB1 expressed in CHO cells, [3H]-[Des-Arg10] Kallidin radioligand; read-out: B1 binding
T1 construct: host or cells: CHO cells, clone hB1-A5
T1 sequence (P46663 1-353): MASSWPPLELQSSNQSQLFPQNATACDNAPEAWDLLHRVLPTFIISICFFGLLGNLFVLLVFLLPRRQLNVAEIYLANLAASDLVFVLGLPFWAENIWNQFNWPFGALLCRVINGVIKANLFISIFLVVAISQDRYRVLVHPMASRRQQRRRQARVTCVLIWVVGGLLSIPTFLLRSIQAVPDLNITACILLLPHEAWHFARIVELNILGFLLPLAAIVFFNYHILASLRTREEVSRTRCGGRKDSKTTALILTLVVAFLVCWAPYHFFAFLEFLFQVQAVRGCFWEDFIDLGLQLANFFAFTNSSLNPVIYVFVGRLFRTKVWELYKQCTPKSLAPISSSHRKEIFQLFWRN
How it was run: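 Competition radioligand binding on CHO-expressed hB1 membranes, using [3,4-prolyl-3,4-^3H(N)]-[Des-Arg^10] Kallidin as tracer, 15 min at 25° C. Excess Lys-des-Arg^9-Bradykinin (10 μM) set nonspecific binding. Sigmoidal fits of at least seven concentrations gave IC50, converted to Ki via Cheng-Prusoff; KD from Scatchard.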

[2] = molecular target: T2, recombinant human B1 receptors (Homo sapiens, UniProt P46663); assay: Functional assay: antagonist potency by cytosolic calcium measurement (plate reader fluorimeter) in CHO-B1 cells, agonist LysDABK; type: cell-based; conditions: CHO-B1 cells, inhibition of LysDABK (EC80)-evoked [Ca2+]i elevation; read-out: B1 func.
T2 construct: host or cells: CHO (CHO-B1)
T2 sequence (P46663 1-353): T1 sequence (P46663 1-353)
How it was run: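 IC50 is the concentration giving half-maximal inhibition of the LysDABK (EC80) calcium response, fitted from at least three experiments. CHO cells stably expressing human B1 were dye-loaded, exposed to compound for 20-25 min, then read by fluo-4 fluorescence (ΔF/F) at 37 °C.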

| SMILES | Ki [1] [nM] | IC50 [2] [nM] |
| --- | --- | --- |
| Cc1nnc(-c2c(Cl)c3ccccc3n2-c2ccc(CNC(=O)C3(NC(=O)CC(F)(F)F)CC3)cc2)o1 [Example 183, 1-(3,3,3-Trifluoro-propionylamino)-cyclopropanecarboxylic acid 4-[3-chloro-2-(5-methyl-[1,3,4]oxadiazol-2-yl)-indol-1-yl]-benzylamide] | 20 to 100 | 20 to 100 |
| Cc1nc(-c2c(Cl)c3ccccc3n2-c2ccc(CNC(=O)C3(NC(=O)c4ccoc4)CC3)cc2)no1 [Example 137, Furan-3-carboxylic acid (1-{4-[3-chloro-2-(5-methyl-[1,2,4]oxadiazol-3-yl)-indol-1-yl]-benzylcarbamoyl}-cyclopropyl)-amide] | < 20 | < 20 |
